In patent publication US6737383B1, “Herbicidal oxadiazolidines” (priority 1999, dated 2004):

Legend:
bedstraw = experiment: Test B pre/postemergence bedstraw; assay type: in vivo, Galium aparine
How it was run: (§1)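 Herbicidal effect was estimated by eye on a ten-point control scale after plants spent twelve to sixteen days in a greenhouse following soil or foliar treatment. Foliar sprays targeted plants at one to four leaves; all doses were formulated in a non-phytotoxic solvent with surfactant.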

blackgrass = experiment: Test B pre/postemergence blackgrass; assay type: in vivo, Alopecurus myosuroides
How it was run: as §1

surinam grass = experiment: Test B pre/postemergence surinam grass; assay type: in vivo, Brachiaria decumbens
How it was run: as §1

cocklebur = experiment: Test B pre/postemergence cocklebur; assay type: in vivo, Xanthium strumarium
How it was run: as §1

corn = experiment: Test B pre/postemergence corn; assay type: in vivo, Zea mays
How it was run: as §1

giant foxtail = experiment: Test B pre/postemergence giant foxtail; assay type: in vivo, Setaria faberii
How it was run: as §1

morningglory = experiment: Test B pre/postemergence morningglory; assay type: in vivo, Ipomoea hederacea
How it was run: as §1

pigweed = experiment: Test B pre/postemergence pigweed; assay type: in vivo, Amaranthus retroflexus
How it was run: as §1

rape = experiment: Test B pre/postemergence rape; assay type: in vivo, Brassica napus
How it was run: as §1

soybean = experiment: Test B pre/postemergence soybean; assay type: in vivo, Glycine max
How it was run: as §1

sugar beet = experiment: Test B pre/postemergence sugar beet; assay type: in vivo, Beta vulgaris
How it was run: as §1

velvetleaf = experiment: Test B pre/postemergence velvetleaf; assay type: in vivo, Abutilon theophrasti
How it was run: as §1

wheat = experiment: Test B pre/postemergence wheat; assay type: in vivo, Triticum aestivum
How it was run: as §1

wild oat = experiment: Test B pre/postemergence wild oat; assay type: in vivo, Avena fatua
How it was run: as §1

smallflower flatsedge = experiment: Test B flood test smallflower flatsedge; assay type: in vivo, Cyperus difformis
How it was run: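 Each value is a visual injury score relative to controls, with 10 meaning complete control and 0 no effect. Evaluation took place twelve to sixteen days after the 2-leaf-stage plants were treated and kept in the greenhouse.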

[1] = Postemergence, Rate 62 g/ha, scale 0 to 10, 0 is no effect, 10 is complete control
[2] = Postemergence, Rate 125 g/ha, scale of 0 to 10 where 0 is no effect and 10 is complete control
[3] = Postemergence, Rate 250 g/ha, scale of 0 to 10, 0 is no effect, 10 is complete control
[4] = Preemergence, Rate 125 g/ha, scale of 0 to 10 where 0 is no effect and 10 is complete control
[5] = Preemergence, Rate 250 g/ha, scale 0 to 10 (0 no effect, 10 complete control)
[6] = Preemergence, Rate 500 g/ha, scale of 0 to 10 where 0 is no effect and 10 is complete control
[7] = Postemergence, Rate 500 g/ha, scale of 0 to 10 where 0 is no effect and 10 is complete control
[8] = Preemergence, Rate 62 g/ha, scale of 0 to 10 where 0 is no effect and 10 is complete control

Compound: CCCCCn1c(=O)on(C(=O)N(c2ccc(F)cc2F)C(C)C)c1=O [Compound 636]
- Plant response rating, Bedstraw (bedstraw; [1]): 7
- Plant response rating, Bedstraw (bedstraw; [2]): 7
- Bedstraw plant response rating (bedstraw; [3]): 9
- Bedstraw plant response rating (bedstraw; [4]): 5
- Plant response rating, Bedstraw (bedstraw; [5]): 9
- Plant response rating, Bedstraw (bedstraw; [6]): 9
- Plant response rating, Blackgrass (blackgrass; [1]): 0
- Plant response rating, Blackgrass (blackgrass; [2]): 0
- Blackgrass plant response rating (blackgrass; [3]): 3
- Plant response rating, Blackgrass (blackgrass; [7]): 5
- Blackgrass plant response rating (blackgrass; [8]): 2
- Blackgrass plant response rating (blackgrass; [4]): 4
- Plant response rating, Blackgrass (blackgrass; [5]): 4
- Plant response rating, Blackgrass (blackgrass; [6]): 7
- Plant response rating, B. signalgrass (surinam grass; [1]): 0
- Plant response rating, B. signalgrass (surinam grass; [2]): 0
- B. signalgrass plant response rating (surinam grass; [3]): 0
- Plant response rating, B. signalgrass (surinam grass; [7]): 3
- B. signalgrass plant response rating (surinam grass; [8]): 3
- B. signalgrass plant response rating (surinam grass; [4]): 9
- Plant response rating, B. signalgrass (surinam grass; [5]): 8
- Plant response rating, B. signalgrass (surinam grass; [6]): 9
- Plant response rating, Cocklebur (cocklebur; [1]): 0
- Plant response rating, Cocklebur (cocklebur; [2]): 3
- Cocklebur plant response rating (cocklebur; [3]): 3
- Plant response rating, Cocklebur (cocklebur; [7]): 3
- Cocklebur plant response rating (cocklebur; [8]): 0
- Cocklebur plant response rating (cocklebur; [4]): 0
- Plant response rating, Cocklebur (cocklebur; [5]): 0
- Plant response rating, Cocklebur (cocklebur; [6]): 0
- Plant response rating, Corn (corn; [1]): 2
- Plant response rating, Corn (corn; [2]): 2
- Corn plant response rating (corn; [3]): 2
- Plant response rating, Corn (corn; [7]): 2
- Corn plant response rating (corn; [4]): 0
- Plant response rating, Corn (corn; [5]): 0
- Plant response rating, Corn (corn; [6]): 3
- Plant response rating, Giant foxtail (giant foxtail; [1]): 2
- Plant response rating, Giant foxtail (giant foxtail; [2]): 7
- Giant foxtail plant response rating (giant foxtail; [3]): 9
- Plant response rating, Giant foxtail (giant foxtail; [7]): 9
- Giant foxtail plant response rating (giant foxtail; [8]): 9
- Giant foxtail plant response rating (giant foxtail; [4]): 10
- Plant response rating, Giant foxtail (giant foxtail; [5]): 10
- Plant response rating, Giant foxtail (giant foxtail; [6]): 10
- Plant response rating, Morningglory (morningglory; [1]): 2
- Plant response rating, Morningglory (morningglory; [2]): 2
- Morningglory plant response rating (morningglory; [3]): 6
- Plant response rating, Morningglory (morningglory; [7]): 6
- Morningglory plant response rating (morningglory; [8]): 0
- Morningglory plant response rating (morningglory; [4]): 0
- Plant response rating, Morningglory (morningglory; [5]): 0
- Plant response rating, Morningglory (morningglory; [6]): 2
- Plant response rating, Redroot pigweed (pigweed; [1]): 0
- Plant response rating, Redroot pigweed (pigweed; [2]): 0
- Redroot pigweed plant response rating (pigweed; [3]): 6
- Redroot pigweed plant response rating (pigweed; [8]): 10
- Redroot pigweed plant response rating (pigweed; [4]): 10
- Plant response rating, Redroot pigweed (pigweed; [5]): 10
- Plant response rating, Redroot pigweed (pigweed; [6]): 10
- Plant response rating, Rape (rape; [1]): 2
- Plant response rating, Rape (rape; [2]): 6
- Rape plant response rating (rape; [3]): 7
- Plant response rating, Rape (rape; [7]): 7
- Rape plant response rating (rape; [8]): 0
- Rape plant response rating (rape; [4]): 2
- Plant response rating, Rape (rape; [5]): 7
- Plant response rating, Rape (rape; [6]): 10
- Plant response rating, Soybean (soybean; [1]): 2
- Plant response rating, Soybean (soybean; [2]): 2
- Soybean plant response rating (soybean; [3]): 4
- Soybean plant response rating (soybean; [8]): 0
- Soybean plant response rating (soybean; [4]): 0
- Plant response rating, Soybean (soybean; [5]): 0
- Plant response rating, Soybean (soybean; [6]): 4
- Plant response rating, Sugarbeets (sugar beet; [1]): 2
- Plant response rating, Sugarbeets (sugar beet; [2]): 2
- Sugarbeets plant response rating (sugar beet; [3]): 5
- Sugarbeets plant response rating (sugar beet; [8]): 0
- Sugarbeets plant response rating (sugar beet; [4]): 0
- Plant response rating, Sugarbeets (sugar beet; [5]): 6
- Plant response rating, Sugarbeets (sugar beet; [6]): 7
- Plant response rating, Velvetleaf (velvetleaf; [1]): 3
- Plant response rating, Velvetleaf (velvetleaf; [2]): 3
- Velvetleaf plant response rating (velvetleaf; [3]): 3
- Velvetleaf plant response rating (velvetleaf; [8]): 0
- Velvetleaf plant response rating (velvetleaf; [4]): 0
- Plant response rating, Velvetleaf (velvetleaf; [5]): 2
- Plant response rating, Velvetleaf (velvetleaf; [6]): 4
- Plant response rating, Wheat (wheat; [1]): 0
- Plant response rating, Wheat (wheat; [2]): 0
- Wheat plant response rating (wheat; [3]): 0
- Wheat plant response rating (wheat; [8]): 0
- Wheat plant response rating (wheat; [4]): 0
- Plant response rating, Wheat (wheat; [5]): 0
- Plant response rating, Wheat (wheat; [6]): 2
- Plant response rating, Wild oats (wild oat; [1]): 0
- Plant response rating, Wild oats (wild oat; [2]): 0
- Wild oats plant response rating (wild oat; [3]): 0
- Wild oats plant response rating (wild oat; [8]): 0
- Wild oats plant response rating (wild oat; [4]): 0
- Plant response rating, Wild oats (wild oat; [5]): 0
- Plant response rating, Wild oats (wild oat; [6]): 5
- Plant response rating, S. Flatsedge (0 to 10 scale, 0 is no effect, 10 is complete control) (smallflower flatsedge; Rate 62 g/ha, flood test species, Pre-emergence, visual evaluation after twelve to sixteen days): 0
- S. Flatsedge plant response rating (0 to 10 scale, 0 is no effect, 10 is complete control) (smallflower flatsedge; Rate 125 g/ha, under heading Pre-emergence, flood test species, visual evaluation after twelve to sixteen days): 0
- S. Flatsedge plant response rating (smallflower flatsedge; Rate 250 g/ha, Pre-emergence (flood test species), scale 0 to 10, 0 is no effect, 10 is complete control): 0
- S. Flatsedge plant response rating (smallflower flatsedge; Rate 500 g/ha, Pre-emergence section of Table B, 0 to 10 scale (0 no effect, 10 complete control)): 0
